What was measured:
[1] = tested on: A549 adenocarcinoma alveolar epithelial cancer cells; experiment: Antiproliferative activity (NCI procedure, sulforhodamine B), A549; format: cell-based, human; conditions: Homo sapiens, A549, unit inferred, tested 781 nM to 100 μM, 48 h
Procedure: (§1) The antiproliferative activity of compounds 3a-b, 4a-e, 5a-e and 6a-e was subsequently evaluated using the human HT-29 colon adenocarcinoma and the A549 adenocarcinoma alveolar epithelial cancer cell lines, the HaCaT spontaneously transformed aneuploid immortal keratinocyte cell line and the HDFn neonatal dermal fibroblast cell line (Table 2). Cell growth inhibition was assessed according to the NCI/NIH Developmental Therapeutics Program.
(§2) The antiproliferative activity assay of all compounds was assessed using the procedure recommended by the National Cancer Institute for its drug screening program with minor modifications. Briefly, 96-well microtiter plates were seeded with 75 μL of a suspension of either HaCaT (5×10^3), HT-29 (3.0×10^3), A549 (3.0×10^3) or HDFn (3×10^3) cells per well in DMEM and incubated for 24 h at 37° C. in a moisture-saturated atmosphere containing 5% CO2. Compounds freshly solubilized in DMSO (40 mM) were diluted in fresh DMEM, and 75 μL aliquots containing serially diluted concentrations of the compound were added. Final compound concentrations ranged from 100 μM to 781 nM. DMSO was maintained at a concentration of <0.5% (v/v) to avoid any related cytotoxicity. Plates were subsequently incubated for 48 h. Cell growth was then stopped by the addition of cold trichloroacetic acid to the wells (10% w/v, final concentration), followed by a 1 h incubation period at 4° C. The plates were washed 4-times with water. A sulforhodamine B solution (75 μL; 0.1% w/v) in acetic acid (1%) was subsequently added to each well and the plates incubated over a 15 min period while at room temperature. After staining, any unbound dye was removed by washing 4-times with an acetic acid solution (1%). Bound dye was solubilized in 20 mM Tris base and the absorbance was measured at an optimal wavelength (530-568 nm) using a μQuant® Universal microplate spectrophotometer (BioTek, Winooski, Vt.). The measurements for treated cells were compared with measurements from control cell plates fixed on treatment day and the percentage of cell growth inhibition was calculated for each drug. The experiments were performed at least twice in triplicate. The assays were considered valid when the coefficient of variation for a given set of conditions and within the same experiment was <10%.

[2] = tested on: HaCaT keratinocyte cell line; experiment: Antiproliferative activity (NCI procedure, sulforhodamine B), HaCaT; format: cell-based, human; conditions: Homo sapiens, HaCaT, unit inferred, tested 781 nM to 100 μM, 48 h
Procedure: as §1, §2

[3] = tested on: HT-29 colon adenocarcinoma cells; experiment: Antiproliferative activity (NCI procedure, sulforhodamine B), HT-29; format: cell-based, human; conditions: Homo sapiens, HT-29, unit inferred, tested 781 nM to 100 μM, 48 h
Procedure: as §1, §2

[4] = tested on: HDFn neonatal dermal fibroblast cell line; experiment: Antiproliferative activity (NCI procedure, sulforhodamine B), HDFn; format: cell-based, human; conditions: Homo sapiens, Fibroblast, unit inferred, tested 781 nM to 100 μM, 48 h
Procedure: as §1, §2

Row | melting point | Compound | IC50 ([1]; Table 8) | IC50 ([2]; Table 8) | IC50 ([3]; Table 8) | IC50 ([4]; Table 8) | IC50 ([1]; Table 5) | IC50 ([2]; Table 5) | IC50 ([3]; Table 5) | IC50 ([4]; Table 5) | IC50 ([1]; Table 6) | IC50 ([2]; Table 6) | IC50 ([3]; Table 6) | IC50 ([4]; Table 6)
1 | 105 to 111 °C | CC(C)(C)c1cccc(NC(=S)NCC2CCC2)c1 [Compound 90] | 17.5 µM | 34.3 µM | 20.2 µM | 18.2 µM | – | – | – | – | – | – | – | –
2 | 142 to 154 °C | CC(C)(C)c1ccc(NC(=S)NC2CCCC2)cc1 [Compound 97] | 26.2 µM | 40 µM | 28.8 µM | 22.6 µM | – | – | – | – | – | – | – | –
3 | 154 to 162 °C | S=C(Nc1ccc(I)cc1)NC1CCCC1 [Compound 102] | 25.3 µM | 39.1 µM | 25.1 µM | 18.6 µM | – | – | – | – | – | – | – | –
4 | 109 to 115 °C | CCNC(=S)Nc1ccc(C(C)(C)C)cc1 [Compound 94] | 71.1 µM | > 100 µM | 92 µM | 94 µM | – | – | – | – | – | – | – | –
5 | 102 to 110 °C | S=C(NCC1CCC1)Nc1cccc(C2CCCCC2)c1 [Compound 106] | 17 µM | 14.9 µM | 13.2 µM | 4.9 µM | – | – | – | – | – | – | – | –
6 | 166 to 180 °C | S=C(Nc1ccc(I)cc1)NC1CC1 [Compound 101] | 65.1 µM | > 100 µM | 63.3 µM | > 100 µM | – | – | – | – | – | – | – | –
7 | 142 to 152 °C | S=C(Nc1cccc(I)c1)NC1CC1 [Compound 103] | > 100 µM | > 100 µM | > 100 µM | > 100 µM | – | – | – | – | – | – | – | –
8 | 170 to 180 °C | CC(C)(C)c1cccc(NC(=S)NC2CCCC2)c1 [Compound 91] | 19.4 µM | 31.8 µM | 21 µM | 16.3 µM | – | – | – | – | – | – | – | –
9 | 98 to 108 °C | S=C(NCC1CCC1)Nc1ccc(I)cc1 [Compound 92] | 26.2 µM | 48.2 µM | 27.2 µM | 24.2 µM | – | – | – | – | – | – | – | –
10 | 119 to 143 °C | CC(C)(C)c1ccc(NC(=S)NC2CC2)cc1 [Compound 95] | 57.9 µM | 94.5 µM | 64.4 µM | 60 µM | – | – | – | – | – | – | – | –
11 | 129 to 146 °C | CC(C)(C)c1ccc(NC(=S)NCC2CCC2)cc1 [Compound 96] | 23.3 µM | > 100 µM | 44 µM | > 100 µM | – | – | – | – | – | – | – | –
12 | 125 to 140 °C | CC(C)(C)c1cccc(NC(=S)NC2CC2)c1 [Compound 100] | 70 µM | > 100 µM | 75.7 µM | > 100 µM | – | – | – | – | – | – | – | –
13 | 132 to 137 °C | O=C(Nc1cccc(C2CCCCC2)c1)NC1CCCC1 [Compound 69] | – | – | – | – | – | – | – | – | 12 µM | 4 µM | 8.9 µM | 7.6 µM
14 | 129 to 142 °C | S=C(Nc1cccc(C2CCCCC2)c1)NC1CCCC1 [Compound 107] | 6.2 µM | 7.9 µM | 5.7 µM | 3.8 µM | – | – | – | – | – | – | – | –
15 | 157 to 165 °C | S=C(Nc1ccc(C2CCCCC2)cc1)NC1CC1 [Compound 93] | 20.8 µM | 84.7 µM | 30.8 µM | 84 µM | – | – | – | – | – | – | – | –
16 | 136 to 147 °C | S=C(NCC1CCC1)Nc1cccc(I)c1 [Compound 99] | 26.2 µM | 35.5 µM | 27 µM | 19.4 µM | – | – | – | – | – | – | – | –
17 | 122 to 128 °C | S=C(Nc1cccc(C2CCCCC2)c1)NC1CC1 [Compound 105] | 15.9 µM | 16.3 µM | 12.7 µM | 14.7 µM | – | – | – | – | – | – | – | –
18 | 136 to 147 °C | S=C(Nc1cccc(I)c1)NC1CCCC1 [Compound 98] | 21.9 µM | 32.8 µM | 23.4 µM | 16.4 µM | – | – | – | – | – | – | – | –

The next lines start with the molecule.

Row | Compound | melting point | IC50 ([1]; Table 8) | IC50 ([2]; Table 8) | IC50 ([3]; Table 8) | IC50 ([4]; Table 8) | IC50 ([1]; Table 5) | IC50 ([2]; Table 5) | IC50 ([3]; Table 5) | IC50 ([4]; Table 5) | IC50 ([1]; Table 6) | IC50 ([2]; Table 6) | IC50 ([3]; Table 6) | IC50 ([4]; Table 6)
19 | CC(C)(C)NC(=O)Nc1ccc(I)cc1 [Compound 2] | 179 to 199 °C | – | – | – | – | 37.1 µM | 44.7 µM | 32.9 µM | 27.1 µM | – | – | – | –
20 | CC(C)(C)NC(=O)Nc1cccc(C(C)(C)C)c1 [Compound 11] | 161 to 170 °C | – | – | – | – | 36.7 µM | 46.5 µM | 34.9 µM | 13.1 µM | – | – | – | –
21 | CCCNC(=O)Nc1cccc(C2CCCCC2)c1 [Compound 18] | 131 to 134 °C | – | – | – | – | 21 µM | 32 µM | 24.1 µM | 23 µM | – | – | – | –
22 | CC(C)NC(=O)Nc1ccc(C(C)(C)C)cc1 [Compound 7] | 152 to 155 °C | – | – | – | – | 83.2 µM | > 100 µM | 74.2 µM | 57.4 µM | – | – | – | –
23 | CC(C)(C)NC(=O)Nc1cccc(C2CCCCC2)c1 [Compound 17] | 195 to 203 °C | – | – | – | – | 44.1 µM | 87.9 µM | 58.3 µM | 16.3 µM | – | – | – | –
24 | CC(C)NC(=O)Nc1cccc(C(C)(C)C)c1 [Compound 10] | 146 to 149 °C | – | – | – | – | 96.8 µM | > 100 µM | 85.2 µM | 92.4 µM | – | – | – | –
25 | CC(C)NC(=O)Nc1cccc(C2CCCCC2)c1 [Compound 16] | 178 to 181 °C | – | – | – | – | > 100 µM | > 100 µM | > 100 µM | 30.5 µM | – | – | – | –
26 | O=C(Nc1cccc(C2CCCCC2)c1)NC1CC1 [Compound 67] | 138 to 144 °C | – | – | – | – | – | – | – | – | 37 µM | 17 µM | 26 µM | 25 µM
27 | CCCNC(=O)Nc1cccc(C(C)(C)C)c1 [Compound 12] | 138 to 141 °C | – | – | – | – | > 100 µM | > 100 µM | > 100 µM | 81.5 µM | – | – | – | –
28 | CC(C)(C)NC(=O)Nc1ccc(C(C)(C)C)cc1 [Compound 8] | 167 to 174 °C | – | – | – | – | 34.2 µM | 55 µM | 35.6 µM | 14.5 µM | – | – | – | –
29 | CCCNC(=O)Nc1cccc(I)c1 [Compound 6] | 132 to 136 °C | – | – | – | – | 80 µM | 99.7 µM | 87.9 µM | 44.2 µM | – | – | – | –
30 | CC(C)(C)NC(=O)Nc1ccc(C2CCCCC2)cc1 [Compound 14] | 182 to 189 °C | – | – | – | – | 18.5 µM | 35.4 µM | 25.5 µM | 17.2 µM | – | – | – | –
31 | CC(C)NC(=O)Nc1cccc(I)c1 [Compound 4] | 153 to 156 °C | – | – | – | – | 80.3 µM | 94.5 µM | > 100 µM | 59.1 µM | – | – | – | –
32 | O=C(NCC1CCC1)Nc1cccc(C2CCCCC2)c1 [Compound 68] | 115 to 120 °C | – | – | – | – | – | – | – | – | 8 µM | 3.7 µM | 5.6 µM | 12 µM
33 | CC(C)NC(=O)Nc1ccc(C2CCCCC2)cc1 [Compound 13] | 163 to 170 °C | – | – | – | – | 60.8 µM | > 100 µM | 56.9 µM | 59.1 µM | – | – | – | –
34 | CC(C)(C)NC(=O)Nc1cccc(I)c1 [Compound 5] | 189 to 193 °C | – | – | – | – | 61.8 µM | > 100 µM | 81.3 µM | 17.4 µM | – | – | – | –
35 | CCCNC(=O)Nc1ccc(I)cc1 [Compound 3] | 197 to 199 °C | – | – | – | – | 82.7 µM | 94.9 µM | 51.9 µM | 81.3 µM | – | – | – | –
36 | CC(C)(C)CNC(=O)Nc1ccc(C2CCCCC2)cc1 [Compound 61, 1-(4-Cyclohexylphenyl)-3-neopentylurea] | 167 to 169 °C | – | – | – | – | – | – | – | – | – | – | – | –
37 | O=C(Nc1ccc(I)cc1)NC1CC=CC1 [Compound 35, 1-(Cyclopent-3-en-1-yl)-3-(4-iodophenyl)urea] | 201 to 202 °C | – | – | – | – | – | – | – | – | – | – | – | –
38 | O=C(NCC1CC1)Nc1ccc(C2CCCCC2)cc1 [Compound 55, 1-(4-Cyclohexylphenyl)-3-(cyclopropylmethyl)urea] | 178 to 181 °C | – | – | – | – | – | – | – | – | – | – | – | –
39 | O=C(NCC1CC1)Nc1ccc(I)cc1 [Compound 21, 1-(Cyclopropylmethyl)-3-(4-iodophenyl)urea] | 192 to 194 °C | – | – | – | – | – | – | – | – | – | – | – | –

Source: patent US20210163404A1, “NOVEL UREA COMPOUNDS AND BIOISOSTERES THEREOF AND THEIR USE FOR TREATING INFLAMMATION AND INFLAMMATION-RELATED PATHOLOGIES” (UNIVERSITÉ LAVAL, priority 2017, published 2021)
